According to ChEMBL document CHEMBL6120970, “Discovery and Functional Characterization of a Potent, Selective, and Metabolically Stable PROTAC of the Protein Kinases DYRK1A and DYRK1B” (J Med Chem, 2024):
Active and inactive are the calls of the source. The rule behind the calls is not given here.

Tests used:
[1] = biological target: T1, Protein cereblon/Dual specificity tyrosine-phosphorylation-regulated kinase 1A (Homo sapiens, UniProt Q13627+Q96SW2); experiment: PROTAC activity at CRBN/DYRK1A in HEK293 cells assessed as induction of degradation of DYRK1A at 100 nM measured within 8 hrs by Western blot analysis; format: cell-based
[2] = biological target: T1, Protein cereblon/Dual specificity tyrosine-phosphorylation-regulated kinase 1A; experiment: PROTAC activity at CRBN/DYRK1A in HEK293 cells assessed as induction of degradation of DYRK1A at 100 nM preincubated for 24 to 72 hrs followed by washout and subsequent addition of medium containing compounds measured for 48 hrs; format: cell-based; conditions: time 72-120 hrs
[3] = biological target: T1, Protein cereblon/Dual specificity tyrosine-phosphorylation-regulated kinase 1A; experiment: PROTAC activity at CRBN/DYRK1A in Flp-In-T-REx-293 cells overexpressing GFP-DYRK1A assessed as initial rate of degradation at 1 uM measured upto 6 hrs by fluorescence based phase contrast microscopy analysis; format: cell-based
[4] = biological target: T1, Protein cereblon/Dual specificity tyrosine-phosphorylation-regulated kinase 1A; experiment: PROTAC activity at CRBN/DYRK1A in Flp-In-T-REx-293 cells overexpressing GFP-DYRK1A assessed as maximal reduction of GFP fluorescence at 1 uM measured upto 6 hrs by fluorescence based phase contrast microscopy analysis relative to control; format: cell-based
[5] = Metabolic stability in human liver microsomes assessed as intrinsic clearance; format: ADME, Microsome; conditions: read-out: CLH
[6] = biological target: T1, Protein cereblon/Dual specificity tyrosine-phosphorylation-regulated kinase 1A; experiment: Competitive binding affinity to CRBN/DYRK1A (unknown origin) assessed as residence time; format: protein assay
[7] = AUC infinity in mouse at 1 mg/kg, iv administered as single dose; format: ADME, organism-based; conditions: in vivo
[8] = AUC infinity in mouse at 10 mg/kg, po administered as single dose; format: ADME, organism-based; conditions: in vivo
[9] = MRT in mouse at 10 mg/kg, po administered as single dose; format: ADME, organism-based; conditions: in vivo

With `Cc1nc2ccc(-c3ccnc(N)c3)nc2n1-c1ccc(N2CCN(CC#Cc3ccc(N4CCC(C(=O)N5CCC(n6cc(CNc7cccc8c7C(=O)N(C7CCC(=O)NC7=O)C8=O)cn6)CC5)CC4)nc3)CC2)c(F)c1` (centres undefined) the Activity [1] was “Active”, the Activity [2] was “Active” and the Activity [3] was 0.74 h⁻¹. For the same molecule, the Emax [4] was 98%, the CLint scaled [5] was 10.1 mL/min/kg and the TIME [6] was 0.383 h. For the same molecule, the AUC(0-inf) [7] was 2470 ng·h/mL, the AUC(0-inf) [8] was 64 ng·h/mL and the MRT [9] was 2.51 h.
